Reference: patent US10577406B2, “FKBP-L polypeptides and uses in angiogenesis-mediated disorders” (ALMAC DISCOVERY LIMITED, priority 2006, dated 2020)
Ends that are not written are not given here.

Legend:
[1] = test system: DU145 human prostate tumor xenograft; test: prostate cancer xenograft model, intratumoral injection of plasmid complexes; type: in vivo, severe combined immunodeficient mice; details: twice weekly
Experimental: Du145 (prostate carcinoma) cells were obtained from Cancer Research UK and cultured in RPMI 1640 medium (Invitrogen) supplemented with 10% foetal calf serum. All cell lines were grown as monolayers, incubated at 37° C. under 5% CO2.
The FKBP-L/pcDNA3.1 plasmid was constructed by excision of the FKBPL cDNA using BamH1 (polynucleotide SEQ ID NO:31) from pUC18 and then directional ligation of FKBP-L into the BamHI restriction site of pcDNA3.1 (Invitrogen) as described in Example 1. The endostatin plasmid (for use as a postive anti-angiogenic control) hEndo XV/pcDNA3.1, was constructed by digesting the pBLAST hENDO XV plasmid (InVivoGen) with Hpa1 (Promega) and EcoV (Invitrogen) to release the hEndo XV insert. The hEndo XV insert was ligated directionally into the ECoRV restriction site of pcDNA3.1 (Invitrogen).
Nineteen (19) male immunocompromised (severe combined immunodeficient) mice were used (Harlan). The mice were aclimatized and caged in groups of 5 or less in a barrier care facility. Du145 (prostate carcinoma) cells were cultured as previously described. Subconfluent cells were harvested and the cell concentration was adjusted to 5×10^7 cells/ml in PBS. The dorsum of each mouse was shaved. […] The tumors were measured before each treatment. Tumor volume was calculated as: 4/3 πr^3 (where r=½ GMP and GMP=^3√{square root over (Length×Breadth×Height)}).

HMEC-1 [2] = test: in vitro migration assay (wound closure / wound scrape), recombinant protein or peptides added to medium; type: cell-based, Human; details: wound scrape
Experimental: The in vitro migration assay used in these studies is a modified version of the method described by Ashton et al (1999). HMEC-1 were plated into individual chambers on a glass slide and grown to 90% confluence overnight. The medium was removed and the monolayer wounded. The monolayer was re-supplemented with fresh medium and the required volume of recombinant full length his-tagged FKBP-L protein (SEQ ID NO: 1) was added to give the required final concentration.
The monolayers were incubated for 7 hours after exposure to recombinant FKBP-L protein and then fixed in 4% PBS buffered paraformaldehyde. The extent of “wound” closure was blindly assessed microscopically by an independent investigator and quantified using a calibrated eyepiece graticule (1 mm/100 μm graduation) at 20× magnification (Olympus BX 50). The extent of closure in the FKBP-L treated slides was compared to time matched sham treated controls and the % inhibition of wound closure compared to time matched controls calculated.
The following studies were performed to determine the effect of a full length His-tagged recombinant FKBP-L protein on the wound closure assay measured as a function of time. Again, the in vitro migration assay used in these studies is a modified version of the method described by Ashton et al (1999). HMEC-1 were plated into individual chambers on a glass slide and grown to 90% confluence overnight. The medium was removed and the monolayer wounded. The monolayer was re-supplemented with fresh medium and the required volume of full length his-tagged recombinant FKBP-L (i.e., SEQ ID NO: 1) added to give the required final concentration 750 ngml^−1.
Slides were removed at fixed time points until complete closure of the wound, then fixed in 4% PBS buffered paraformaldehyde. The extent of “wound” closure was blindly assessed microscopically by an independent investigator and quantified using a calibrated eyepiece graticule (1 mm/100 μm graduation) at 20× magnification (Olympus BX 50). The extent of closure in the FKBP-L treated slides was compared to time matched sham treated controls and the % inhibition of wound closure compared to time matched controls calculated.
The in vitro migration assay used in these studies is a modified version of the method described by Ashton et al. (1999) see supra. HMEC-1 were plated into individual chambers on a glass slide and grown to 90% confluence overnight. The medium was removed and the monolayer wounded. The monolayer was re-supplemented with fresh medium and the required volume of the following peptides was added to achieve a dose range from 10^−14-10^−6 M.
The monolayers were incubated for 7 h and then fixed in 4% PBS buffered paraformaldehyde. The extent of “wound” closure was blindly assessed microscopically by an independent investigator and quantified using a calibrated eyepiece graticule (1 mm/100 μm graduation) at 20× magnification (Olympus BX 50). The extent of closure in the FKBP-L treated slides was compared to time matched sham treated controls and the % inhibition of wound closure compared to time matched controls calculated.
The in vitro migration assay used in these studies is a modified version of the method described by Ashton et al. (1999) see supra. HMEC-1 were plated into individual chambers on a glass slide and grown to 90% confluence overnight. The medium was removed and the monolayers wounded. The monolayer was re-supplemented with fresh medium and the required volume of each peptide (i.e., peptides 1-17, SEQ ID NOS: 12-28; Table 4 below) was added to give the required final concentration (10^−14-10^−6 M).
The monolayers were incubated for 24 h and then fixed in 4% PBS buffered paraformaldehyde. The extent of “wound” closure was blindly assessed microscopically by an independent investigator and quantified using a calibrated eyepiece graticule (1 mm/100 μm graduation) at 20× magnification (Olympus BX 50). […]

HMEC-1 [3] = type: cell-based, Human; details: 18 h
Experimental: (§1) The in vitro tubule formation assay used in these studies is a modified version of the method described by Ashton et al (1999). In brief, assays were conducted using BD BioCoat™ Matrigel™ Matrix Thin Layer 24-well Multiwell Plates (BD Discovery Labware, Oxford, UK). The Matrigel™ was rehydrated with 500 μl MCDB-131 serum free medium and incubated at 37° C. for 30 minutes. Excess medium was removed and HMEC-1 were seeded at a density of 1×10^5 and the plates incubated at 37° C. under 5% CO2/95% air for 1 hour.
Increasing concentrations of the recombinant FKBP-L protein (SEQ ID NO: 1) were added to each individual well in triplicate (250-1000 ngml^−1) and the plate was incubated for a further 18 hours. The degree of tubule formation between adjacent HMEC-1 cells was assessed in each well in five fields of view, by counting the number of cell to cell contacts between different HMEC-1 cells in the designated area. An independent investigator assessed each well and the FKBP-L treated wells were compared to sham treated controls.
as §1, with “al.” for “al”, “min.” for “minutes.”, “h. Increasing concentrations of FKBP-L 24mer (SEQ ID NO: 10) and 1-57mer (SEQ ID NO: 6) from 10^−14-10^−6 M were used.” for “hour.”
The plate was incubated for a further 18 h. The degree of tubule formation between adjacent HMEC-1 cells was assessed in each well in five fields of view, by counting the number of cell to cell contacts between different HMEC-1 cells in the designated area. An independent investigator assessed each well and the FKBP-L treated wells were compared to sham treated controls.

rat aortic ring = type: cell-based, Male Wistar rats
Experimental: Male Wistar rats were euthanised and the thoracic aorta was aseptically removed and sectioned into 1 cm thick rings. The rings were washed ten times in sterile medium to remove any bacteria and embedded into Matrigel on 24 well plates. The wells were supplemented with 2 ml of medium and increasing concentrations of full-length His-tagged recombinant FKBP-L protein (SEQ ID 1). The plate was incubated for 8 days and post incubation the Matrigel and rings were fixed in 4% PBS buffered paraformaldehyde and stored in PBS. The extent of vessel development was blindly assessed microscopically by an independent investigator and quantified using a calibrated eyepiece graticule (1 mm/100 μm graduation) at 20× magnification (Olympus BX 50). The extent of vessel length, maximum vessel length and number of vessels in each field of view was measured and compared to time matched sham controls and the percent (%) inhibition calculated. Male Wistar rats were euthanised and the thoracic aorta was aseptically removed and sectioned into 1 cm thick rings. The rings were washed ten times in sterile medium to remove any bacteria and embedded into Matrigel on 24 well plates. The wells were supplemented with 2 ml of medium and increasing concentrations of FKBP-L 24mer (SEQ ID NO: 10) and FKBP-L 1-57mer (SEQ ID NO: 6) and recombinant FKBP-L (SEQ ID NO:1). The plate was blindly assessed by an independent investigator and quantified using a calibrated eyepiece graticule (1 mm/100 μm graduation) at 20× magnification (Olympus BX 50). The extent of vessel length, maximum vessel length and number of vessels in each field of view was measured and compared to time matched sham controls and the % inhibition calculated. In order to determine whether the FKBP-L 24mer exerted a permanent or static effect on endothelial cell sprouting the rat aortic ring assay was used. Male Wistar rats were euthanised and the thoracic aorta was aseptically removed and sectioned into 1 cm thick rings. The rings were washed ten times in sterile medium to remove any bacteria and embedded into Matrigel on 24 well plates. The wells were supplemented with 2 ml of medium. The plates were incubated for up to 15 days. Each day the Matrigel rings were photographed and returned to their incubator. Two further experiments were carried out: (A) addition of FKBP-L 24mer to the medium after the vessels had grown for seven days; and (B) addition of FKBP-L 24mer to the medium at the initial embedding stage, with subsequent removal after seven days and replacement with fresh medium for a further seven days. The extent of vessel development was quantified using a calibrated eyepiece graticule (1 mm/100 μm graduation) at 20× magnification (Olympus BX 50), and measured electronically using Lucia imaging software. Vessel length was measured and compared to time matched sham controls and the percent (%) inhibition calculated.

HMEC-1 cells = test: MTT assay of cell viability/proliferation; details: 24mer 10^−5-10^−10M, 1-57mer 10^−9M and 10^−10M; 24 hours and 48 hours
Experimental: An MTT assay was used to measure cell viability/proliferation.
An MTT assay was used to measure cell viability and/or proliferation. Briefly, HMEC-1 cells were seeded (2.5×10^3) in 96 well plates and allowed to attach for 5 h. The cells were treated with FKBP-L 24mer (SEQ ID NO: 10) (10^−5-10^−10M), 1-57mer (SEQ ID NO: 6) (10^−9M and 10^−10M) or medium (control).
Post incubation the cells were exposed to a 5 mgml^−1 solution of 3-(-4,5-dimethylthiazol-2-yl) 2,5 diphenyl tetrazolium (MTT) for 4 h. The cells were aspirated and 200 μl of DMSO added to reduce the salt and induce a colour change.

L132 cells = test: cDNA microarray analysis of gene expression after FKBP-L antisense; type: cell-based; details: 8 h after exposure, vs lipofectin only
Experimental: Total RNA was isolated from L132 cells, 8 h after exposure to FKBP-L antisense (FKBP-L antisense: 5′ ATG GCC AGG CTC CCG CTC 3′) (SEQ ID NO: 40) or lipofectin only as a control. Poly A+mRNA was extracted from total RNA samples using the Qiagen Oligotex kit (Qiagen, UK), according to the manufacturer's instructions. These mRNA samples (800 ng per sample) were sent to Incyte Genomics, USA where a UniGEM 2.0 microarray analysis was conducted.
Incyte's Lifearray chips enable the interrogation of up to 10,000 genes simultaneously, resulting in the comparison of gene expression levels in two different samples. Briefly, a standard reverse transcription reaction was carried out to convert both mRNA samples to cyanine-dye-labelled cDNA. mRNA from L132 cells treated with FKBP-L antisense oligonucleotides after 8 h was used to generate a Cyanine 3 (green) labelled probe and mRNA from L132 cells treated with lipofectin only after 8 hours was used to produce a Cyanine 5 (red) labelled probe. The two fluorescent probe samples were simultaneously applied to a single microarray chip containing numerous cDNA probes immobilised on a solid support in specific locations, where they competitively reacted with the arrayed cDNA molecules. Following incubation, the microarray was rinsed in a series of baths to ensure the removal of any unhybridised sample. The microarray was then captured as an image that was acquired using a scanner for fluorescent signal detection. This scanner generated data on the intensity of each spot by excitation of the fluorochromes on the array. Each element of the chip was scanned for the Cy3 (green) and then the Cy5 (red) fluorescent label to create electronic images for both dye channels. The final array images were analysed using the Incyte GEMTools software package.

endostatin
tumor appearance [1]: evidence of a necrotic center

METPPVNTIGEKDTSQPQQEWEKNLRENLDSVIQIRQQPRDPPTETLELEVSPDPAS [FKBP-L 1-57mer]
potency compared with the full length recombinant protein on a mole/mole basis (HMEC-1 [2]; 7 h): increased potency | EC50 (HMEC-1 [3]): 0.7 pM | IC50 (rat aortic ring): 0.53 nM | effect on proliferation of HMEC-1 cells compared to time-matched controls (HMEC-1 cells): neither of the peptides had any significant effect

RQQPRDPPTETLELEVSPD-OH (listed as Homo sapiens) [Pep 12]
activity relative to the FKBP-L 24mer (HMEC-1 [2]; 24 h): about the same as the FKBP-L 24mer

5′ ATG GCC AGG CTC CCG CTC 3′ (antisense ATGGCCAGGCTCCCGCTC; listed as DNA, chemistry not given here; listed as Homo sapiens) [FKBP-L anti-sense oligonucleotides]
Fold Increase (↑) or Decrease (↓): Annexin 2 (L132 cells; decrease ↓): ↓ 1.6 Fold | Fold Increase (↑) or Decrease (↓): CYR61 (L132 cells; decrease ↓): ↓ 2.4 Fold | Fold Increase (↑) or Decrease (↓): Tubulin α (L132 cells; decrease ↓): ↓ 1.5 Fold | Fold Increase (↑) or Decrease (↓): Tubulin β (L132 cells; decrease ↓): ↓ 1.5 Fold | Fold Increase (↑) or Decrease (↓): Tubulin γ (L132 cells; decrease ↓): ↓ 1.6 Fold | Fold Increase (↑) or Decrease (↓): MMP-like 1 (L132 cells; increase ↑): ↑ 1.5 Fold | Fold Increase (↑) or Decrease (↓): Microtubule associated protein 1B (L132 cells; increase ↑): ↑ 1.6 Fold | Fold Increase (↑) or Decrease (↓): PI3K (L132 cells; increase ↑): ↑ 3.1 Fold | Fold Increase (↑) or Decrease (↓): ROCK (L132 cells; increase ↑): ↑ 1.6 Fold | Fold Increase (↑) or Decrease (↓): Rho GTPase activating protein- (L132 cells; increase ↑): ↑ 2.0 Fold | Fold Increase (↑) or Decrease (↓): oligophrenin 1 (L132 cells; increase ↑): ↑ 1.7 Fold
